# From patent US11266715B2, “C3A receptor agonists for use against ischemic brain injury, stroke, traumatic brain injury, spinal cord injury and neurodegenerative disorders” (priority 2016, dated 2022)
# Columns and labels:
# [1] = test system: newly differentiated neurons; conditions: in vitro; cited from earlier work
# [2] = test system: WT mice subjected to photothrombotic stroke in the motor cortex; assay: Cylinder test (spontaneous forelimb asymmetry) after photothrombotic stroke; type: in vivo, mouse
# Description: Cortical photothrombosis was induced using the Rose Bengal method (Lee et al., 2007; Watson et al., 1985) with some modifications. Anesthesia was induced with isoflurane (Forene®, Abbott) in air and oxygen (1:1) initially at 5% and reduced to 2.5% during the surgical procedure. Body temperature was monitored by a rectal probe and maintained at 37° C. using a homeothermic control unit (Harvard Apparatus). Anesthetized mice were placed in a stereotaxic frame, the skull was exposed through a midline scalp incision and Rose Bengal (200 μl, 10 mg/ml solution in sterile saline, Sigma) was injected intraperitoneally. After 5 min, the skull and underlying brain tissue were illuminated for 12 min by a 2 mm diameter cold laser beam (50 mW, 561 nm; Cobolt AB) positioned at AP +0.5 mm and ML −2.7 mm relative to Bregma, targeting the border between left primary somatosensory and motor cortex (Porritt et al., 2012). For intervention experiments targeting motor cortex, stroke was induced as above with the following modifications: Transcranial illumination lasting 15 min was delivered using cold light source (LQ1600, Fiberoptic-Heim AG) equipped with 2 mm wide fiber optic probe and directed to AP +0 and ML −1.5 relative to Bregma. After illumination, the scalp was sutured and mice were placed in a warm cage for 45 min to recover from anesthesia prior to being returned to the home cage. Mice were provided with moist mashed food placed on the floor of the home cage and their weight was monitored daily for 7 days after surgery. There were no significant differences in body weight, body temperature (36.5±0.5° C.), duration of surgery, or post-stroke mortality between cohorts. Each cohort contained an even distribution of mice from the matched strains or treatment groups.
# Purified human C3a peptide (Complement Technologies) was diluted in sterile phosphate buffered saline (PBS) to a concentration of 200 nM and a total of 20 μl (10 μl/nostril; corresponding to approximately 1.13 μg/kg body weight) of peptide solution or PBS was given intranasally to awake, hand-restrained mice held in a supine position. Solutions were administered through a pipette tip, drop-wise in 5 μl portions divided by 1 min intervals to allow for absorption. C3a or PBS was given every 24 hours on days 7 to 21 post-stroke for the short-term study or on days 7 to 28 post-stroke for the long-term study. Mice were assigned to C3a or PBS treatment using randomization stratified by body weight to avoid potential confounding effects of body weight on behavioural performance. The investigators carrying out behavioural studies and analysing data were blinded to treatment group. For the assessment of potential systemic anaphylactic response due to intranasal C3a inoculation, body temperature was monitored using a rectal temperature probe (Harvard Apparatus) inserted approximately 4 mm into the rectum of awake mice restrained by the scruff. Baseline temperature was taken before intranasal administration and 5, 15, 30, 45 and 75 min after C3a or PBS administration.
# Functional impairment of mice treated intranasally with C3a or vehicle was assessed using a modified cylinder test and a grid walking task to closely evaluate forepaw function. Mice were tested once on each task one week before stroke induction to establish baseline performance. Next, they were tested on days 7, 14 and 21 (short-term study) or days 7, 14, 28, 42 and 56 (long-term study) post-stroke. […]
substance,measurement,setting,value
"C3a: Purified human C3a peptide (Complement Technologies), C3a receptor agonist, amino acid sequence SEQ ID NO: 1",neurite outgrowth,[1],increased neurite outgrowth
same,"cylinder task average scores on last day of testing, C3a vs PBS","[2]; long-term study, day 56, Sidak's test P=0.0687",only a trend toward a difference between groups
same,cylinder task performance at days 28 and 56 vs day 7,"[2]; long-term study, Dunnett's test P=0.032 and P=0.0019",sustained functional improvement
same,mice that improved affected paw usage between day 7 and day 56,"[2]; long-term study, paired t-test P=0.009",8/10
same,"right paw use for body support, course between days 7 and 21","[2]; short-term study, C3a days 7-21, n=10 mice/group",continuous improvement
same,frequency of right paw use on day 21 vs baseline,"[2]; short-term study, P=0.062",did not differ from baseline performance
